{
  "source": "paper PMC6915728",
  "about": "(Nature Communications, 2019)",
  "key": {"[1]": {"test_system": "E. coli gene overexpression", "conditions": "cited from earlier work", "text": "Supplement 41467_2019_13618_MOESM1_ESM.docx, table 1: Supplementary Table 1. Collected examples of E. coli gene overexpression from the literature as a confirmation of our chemical-genetic screen results. | column: Overexpression phenotype"}, "[2]": {"test_system": "bacterial species in which the gene showed activity", "conditions": "cited from earlier work"}, "[3]": {"test_system": "bacterial membrane", "conditions": "literature mining; ref superscript numbers in the cell, listed in Supplementary Data 7 sheet References; cited from earlier work", "text": "Supplement 41467_2019_13618_MOESM10_ESM.xlsx, sheet \"AMP details\" | column: Pore formation"}, "[4]": {"test_system": "AMP-evolved E. coli lines", "experiment": "Cross-resistance / collateral sensitivity: relative MIC change of 38 laboratory-evolved AMP-resistant lines vs parental strain", "format": "cell-based, Escherichia coli", "conditions": "measured here", "text": "Here, we extended this dataset by measuring susceptibility changes of the same evolved lines to four additional AMPs using identical protocols to represent AMPs from all four clusters (Supplementary Fig. 15a, see also Methods). Overall, the resulting dataset of susceptibility profiles provides a comprehensive map of cross-resistance and collateral sensitivity between AMPs representing various modes of action.\nTo characterize the cross-resistance of the 38 E. coli lineages we obtained relative MIC changes that are, the MIC values of the evolved lines compared to these of the parental strain, from two data sources. First, we used already measured relative MIC changes from Spohn et al. Supplementary data 4[20]. […] Second, we extended this dataset by measuring the relative MIC changes of the same evolved lines to four additional AMPs using identical protocol. […] In this way, AMPs from each cluster were represented in the dataset.\nSupplementary Figure 15. […] Relative change in MIC was determined for each evolved line by comparing its MIC to the ancestral cell line (control). […] CAP18-adaped lines were not included in the analysis because CAP18 is known as a membrane-targeting AMP in the literature. c, Cross-resistance interactions are enriched between membrane-targeting AMPs that are in the same chemical-genetic clusters (i.e. AMP pairs within C1 and within C2 clusters) (Significant difference: ** P = 0.0082 from two-sided Fisher’s exact test, n = 61 and 62 for within cluster and between clusters, respectively). […] Source data are provided as a Source Data file."}},
  "note": "Read-outs that look alike come from different tables or passages of the source.",
  "data": [
    {"sequence": "TSSPPAAVVVRRRRRRRRRRRRRRRRRRR [PROA, Protamine, source herring, purchased from Sigma-Aldrich; cluster C3]", "values": [
      {"measurement": "Overexpression phenotype, Literature", "setting": "[1]; gene nlpE overexpressed, ref 6 (Griffin 2013)", "result": "Resistance^6"},
      {"measurement": "Overexpression phenotype, Literature", "setting": "[1]; gene ompT overexpressed, ref 4 (Stumpe et al. 1998)", "result": "Resistance^4"},
      {"measurement": "Gene that modulates bacterial susceptibility to the AMP", "setting": "[2]; Burkholderia cenocepacia, ref http://www.microbiologyresearch.org/docserver/fulltext/micro/155/9/2818.pdf?expires=1468919235&id=id&accname=guest&checksum=2CEA64BA8195145BE72C98BB20076627", "result": "zmpA"},
      {"measurement": "Gene that modulates bacterial susceptibility to the AMP", "setting": "[2]; Burkholderia cenocepacia, ref http://www.microbiologyresearch.org/docserver/fulltext/micro/155/9/2818.pdf?expires=1468919235&id=id&accname=guest&checksum=2CEA64BA8195145BE72C98BB20076628", "result": "zmpB"},
      {"measurement": "Gene that modulates bacterial susceptibility to the AMP", "setting": "[2]; Enterobacteriaceae, ref https://www.ncbi.nlm.nih.gov/pmc/articles/PMC3264287/, https://onlinelibrary.wiley.com/doi/full/10.1111/j.1348-0421.2010.00238.x, https://jb.asm.org/content/180/15/4002.full", "result": "ompT"},
      {"measurement": "Gene that modulates bacterial susceptibility to the AMP", "setting": "[2]; Klebsiella pneumoniae, ref http://iai.asm.org/content/72/12/7107.full.pdf+html", "result": "cps"},
      {"measurement": "Gene that modulates bacterial susceptibility to the AMP", "setting": "[2]; Proteus mirabilis, ref http://aac.asm.org/content/45/7/2030.long", "result": "sapD"},
      {"measurement": "Gene that modulates bacterial susceptibility to the AMP", "setting": "[2]; Pseudomonas aeruginosa, Salmonella typhimurium, Escherichia coli, ref http://www.sciencemag.org/content/286/5444/1561.full.pdf, http://onlinelibrary.wiley.com/doi/10.1111/j.1365-2958.1995.tb02299.x/abstract, http://www.ncbi.nlm.nih.gov/pmc/articles/PMC50673/pdf/pnas01098-0300.pdf, https://jb.asm.org/content/jb/182/14/4077.full.pdf", "result": "phoP (PhoPQ)"},
      {"measurement": "Gene that modulates bacterial susceptibility to the AMP", "setting": "[2]; Salmonella Typhimurium LT2, ref https://doi.org/10.1093/jac/dkq059", "result": "hemC (hem operon)"},
      {"measurement": "Gene that modulates bacterial susceptibility to the AMP", "setting": "[2]; Salmonella enterica serovar Typhimurium, ref http://www.microbiologyresearch.org/docserver/fulltext/micro/154/2/666.pdf?expires=1487718158&id=id&accname=guest&checksum=D8B884D02A8B2A8619216A48E0826377", "result": "yejA"},
      {"measurement": "Gene that modulates bacterial susceptibility to the AMP", "setting": "[2]; Salmonella enterica, Escherichia coli, ref http://www.ncbi.nlm.nih.gov/pmc/articles/PMC395316/pdf/emboj00065-0046.pdf http://www.ncbi.nlm.nih.gov/pmc/articles/PMC538956/pdf/1013-04.pd", "result": "sapA"},
      {"measurement": "Gene that modulates bacterial susceptibility to the AMP", "setting": "[2]; Salmonella typhimurium, Escherichia coli, ref https://www.ncbi.nlm.nih.gov/pmc/articles/PMC3037666/, https://www.ncbi.nlm.nih.gov/pmc/articles/PMC3837802/pdf/zam7770.pdf", "result": "cpxA (CpxA/CpxR)"},
      {"measurement": "Gene that modulates bacterial susceptibility to the AMP", "setting": "[2]; Salmonella typhimurium, Escherichia coli, ref https://www.ncbi.nlm.nih.gov/pmc/articles/PMC3037666/, https://www.ncbi.nlm.nih.gov/pmc/articles/PMC4808223/", "result": "amiA, amiC"},
      {"measurement": "Gene that modulates bacterial susceptibility to the AMP", "setting": "[2]; Salmonella typhimurium, ref https://www.ncbi.nlm.nih.gov/pmc/articles/PMC3037666/", "result": "tatA"},
      {"measurement": "Gene that modulates bacterial susceptibility to the AMP", "setting": "[2]; Staphylococcus aureus, SalmonellaTyphimurium, ref http://ac.els-cdn.com/S0022202X15369608/1-s2.0-S0022202X15369608-main.pdf?_tid=6fa51c80-693e-11e6-b18c-00000aacb362&acdnat=1471962936_8118358d97a056d7d78b5e8b4ca8d03b, https://www.sciencedirect.com/science/article/pii/S0928824401002917", "result": "hemB"},
      {"measurement": "Pore formation (whether AMP makes pores in the bacterial membrane)", "setting": "[3]", "result": "No43"},
      {"measurement": "Relative change in MIC (MIC of the AMP-adpated line / MIC of the ancestral strain)", "setting": "[4]; AMP-adapted line BAC5_3", "result": 1.1},
      {"measurement": "Relative change in MIC (MIC of the AMP-adpated line / MIC of the ancestral strain)", "setting": "[4]; AMP-adapted line BAC5_5", "result": 1.015},
      {"measurement": "Relative change in MIC (MIC of the AMP-adpated line / MIC of the ancestral strain)", "setting": "[4]; AMP-adapted line BAC5_7", "result": 1.44},
      {"measurement": "Relative change in MIC (MIC of the AMP-adpated line / MIC of the ancestral strain)", "setting": "[4]; AMP-adapted line BAC5_10", "result": 1.728},
      {"measurement": "Relative change in MIC (MIC of the AMP-adpated line / MIC of the ancestral strain)", "setting": "[4]; AMP-adapted line CAP18_2", "result": 1.2},
      {"measurement": "Relative change in MIC (MIC of the AMP-adpated line / MIC of the ancestral strain)", "setting": "[4]; AMP-adapted line CAP18_5", "result": 0.7622},
      {"measurement": "Relative change in MIC (MIC of the AMP-adpated line / MIC of the ancestral strain)", "setting": "[4]; AMP-adapted line CAP18_6", "result": 0.7622},
      {"measurement": "Relative change in MIC (MIC of the AMP-adpated line / MIC of the ancestral strain)", "setting": "[4]; AMP-adapted line CAP18_8", "result": 1.22},
      {"measurement": "Relative change in MIC (MIC of the AMP-adpated line / MIC of the ancestral strain)", "setting": "[4]; AMP-adapted line CAP18_10", "result": 1.44},
      {"measurement": "Relative change in MIC (MIC of the AMP-adpated line / MIC of the ancestral strain)", "setting": "[4]; AMP-adapted line HBD3_3", "result": 1.464},
      {"measurement": "Relative change in MIC (MIC of the AMP-adpated line / MIC of the ancestral strain)", "setting": "[4]; AMP-adapted line HBD3_6", "result": 0.7639},
      {"measurement": "Relative change in MIC (MIC of the AMP-adpated line / MIC of the ancestral strain)", "setting": "[4]; AMP-adapted line HBD3_8", "result": 1.22},
      {"measurement": "Relative change in MIC (MIC of the AMP-adpated line / MIC of the ancestral strain)", "setting": "[4]; AMP-adapted line HBD3_10", "result": 1.584},
      {"measurement": "Relative change in MIC (MIC of the AMP-adpated line / MIC of the ancestral strain)", "setting": "[4]; AMP-adapted line LL37_1", "result": 0.7044},
      {"measurement": "Relative change in MIC (MIC of the AMP-adpated line / MIC of the ancestral strain)", "setting": "[4]; AMP-adapted line LL37_3", "result": 0.7622},
      {"measurement": "Relative change in MIC (MIC of the AMP-adpated line / MIC of the ancestral strain)", "setting": "[4]; AMP-adapted line LL37_6", "result": 0.48},
      {"measurement": "Relative change in MIC (MIC of the AMP-adpated line / MIC of the ancestral strain)", "setting": "[4]; AMP-adapted line LL37_7", "result": 1},
      {"measurement": "Relative change in MIC (MIC of the AMP-adpated line / MIC of the ancestral strain)", "setting": "[4]; AMP-adapted line LL37_10", "result": 0.48},
      {"measurement": "Relative change in MIC (MIC of the AMP-adpated line / MIC of the ancestral strain)", "setting": "[4]; AMP-adapted line PEX_1", "result": 1.2},
      {"measurement": "Relative change in MIC (MIC of the AMP-adpated line / MIC of the ancestral strain)", "setting": "[4]; AMP-adapted line PEX_4", "result": 1.728},
      {"measurement": "Relative change in MIC (MIC of the AMP-adpated line / MIC of the ancestral strain)", "setting": "[4]; AMP-adapted line PEX_5", "result": 0.915},
      {"measurement": "Relative change in MIC (MIC of the AMP-adpated line / MIC of the ancestral strain)", "setting": "[4]; AMP-adapted line PEX_6", "result": 2.0736},
      {"measurement": "Relative change in MIC (MIC of the AMP-adpated line / MIC of the ancestral strain)", "setting": "[4]; AMP-adapted line PEX_7", "result": 0.8472},
      {"measurement": "Relative change in MIC (MIC of the AMP-adpated line / MIC of the ancestral strain)", "setting": "[4]; AMP-adapted line PR39_1", "result": 2.99},
      {"measurement": "Relative change in MIC (MIC of the AMP-adpated line / MIC of the ancestral strain)", "setting": "[4]; AMP-adapted line PR39_2", "result": 1.2},
      {"measurement": "Relative change in MIC (MIC of the AMP-adpated line / MIC of the ancestral strain)", "setting": "[4]; AMP-adapted line PR39_5", "result": 1.2},
      {"measurement": "Relative change in MIC (MIC of the AMP-adpated line / MIC of the ancestral strain)", "setting": "[4]; AMP-adapted line PR39_7", "result": 1.73},
      {"measurement": "Relative change in MIC (MIC of the AMP-adpated line / MIC of the ancestral strain)", "setting": "[4]; AMP-adapted line PR39_10", "result": 1.44},
      {"measurement": "Relative change in MIC (MIC of the AMP-adpated line / MIC of the ancestral strain)", "setting": "[4]; AMP-adapted line PXB_2", "result": 1.7568},
      {"measurement": "Relative change in MIC (MIC of the AMP-adpated line / MIC of the ancestral strain)", "setting": "[4]; AMP-adapted line PXB_5", "result": 0.8333},
      {"measurement": "Relative change in MIC (MIC of the AMP-adpated line / MIC of the ancestral strain)", "setting": "[4]; AMP-adapted line PXB_6", "result": 1},
      {"measurement": "Relative change in MIC (MIC of the AMP-adpated line / MIC of the ancestral strain)", "setting": "[4]; AMP-adapted line PXB_8", "result": 1},
      {"measurement": "Relative change in MIC (MIC of the AMP-adpated line / MIC of the ancestral strain)", "setting": "[4]; AMP-adapted line PXB_10", "result": 1.44}
    ]}
  ]
}
